Values after ≈ are worked out from the molar mass of the structure shown. A value given as a limit tells only on which side of the number the result lay.

Our source for the Activity, IC50 and inhibition values is ChEMBL document CHEMBL1150835, “In vitro antiplasmodial activity of extracts of Tristaniopsis species and identification of the active constituents: ellagic acid and 3,4,5-trimethoxyphenyl-(6'-O-galloyl)-O-beta-D-glucopyranoside” (J Nat Prod, 2001).

The nature of data set [1]: Cytotoxicity against HSF assessed as decrease in proliferation at 100 uM by MTT assay. Details: scale not given: the % may be the effect or the level left. The settings on record: human. A general note: Formazan colour is commonly taken as a measure of viable cells.
For data set [2], the system named is Plasmodium falciparum. In words: Antiplasmodial activity after 24 hrs against chloroquine-sensitive, mefloquine-resistant Plasmodium falciparum D6 infected human erythrocytes by [G-3H]hypoxanthine uptake. The class given is functional, organism-based. Conditions: D6, 24 h.
Data set [3] has as its system Plasmodium falciparum. In words: Antiplasmodial activity after 24 hrs against chloroquine-resistant, mefloquine-sensitive Plasmodium falciparum W2 infected human erythrocytes by [G-3H]hypoxanthine uptake. Type of data set: functional, organism-based. The settings on record: W2, 24 h.
Another data set concerns HepG2. The data set is described as follows: (§1) Cytotoxicity against human HepG2 cells assessed as decrease in proliferation at 100 uM by MTT assay. Conditions: hepg2, 100 µM. The class given is cell-based.
Data set [4] in a line: as §1. Type of data set: cell-based. Conditions: HepG2 cells, read-out: Activity.

On to `COc1cc(O[C@@H]2O[C@H](COC(=O)c3cc(O)c(O)c(O)c3)[C@@H](O)[C@H](O)[C@H]2O)cc(OC)c1OC`, for which the Activity result (in data set [1]; with HepG2) was “Non-toxic” in each case. The IC50 in the data set with Plasmodium falciparum [2] amounted to 1.75 µg/mL (≈ 3.5 µM); in the data set on Plasmodium falciparum [3], 1.58 µg/mL (≈ 3.18 µM).
As to `O=c1oc2c(O)c(O)cc3c(=O)oc4c(O)c(O)cc1c4c23` [ELLAGIC ACID], the Activity in data set [1] was found to be 20%. The IC50 in the data set with Plasmodium falciparum [2] turned out to be 0.145 µg/mL (≈ 0.48 µM); with Plasmodium falciparum [3], 0.103 µg/mL (≈ 0.341 µM). The inhibition at 100 µM in data set [4] stood at 9%.
In turn, `O=C(O)c1cc(O)c(O)c(O)c1` [GALLIC ACID] showed an IC50 in the data set with Plasmodium falciparum [2] above 5 µg/mL.
As for `OC(c1cc(C(F)(F)F)nc2c(C(F)(F)F)cccc12)C1CCCCN1` (configuration not stated) [MEFLOQUINE], half-maximal inhibition in the data set on Plasmodium falciparum [3] (IC50) was put at 0.00136 µg/mL (≈ 0.00359 µM).
Molecule `O=C(O)c1ccc(O)cc1` [PARABEN] showed an IC50 in the data set on Plasmodium falciparum [2] above 5 µg/mL.
On the same count and under the same terms, under `O=C(O)c1ccc(O)c(O)c1` [PROTOCATECHUIC ACID] stands above 5 µg/mL.

As usually defined, the IC50 is the concentration needed to halve the response being measured.
